Results from patent US9510592B2, “Pesticidal compositions and processes related thereto” (Dow AgroSciences LLC, priority 2012, dated 2016).

The compounds below were run on Beet Armyworm (Spodoptera exigua) (assay: Bioassay on Beet Armyworm (BAW), 128-well diet tray assay). Conditions: percent mortality of second instar larvae, 50 μg/cm^2 on artificial diet, five to seven days, 25° C.; Table 3.
Format: in vivo
Description: Certain molecules disclosed in this document were tested against BAW and CEW and CL using procedures described in the following examples. In the reporting of the results, the “BAW & CEW & CL Rating Table” was used (See Table Section).
Bioassays on BAW (Spodoptera exigua)
Bioassays on BAW were conducted using a 128-well diet tray assay. one to five second instar BAW larvae were placed in each well (3 mL) of the diet tray that had been previously filled with 1 mL of artificial diet to which 50 μg/cm^2 of the test compound (dissolved in 50 μL of 90:10 acetone-water mixture) had been applied (to each of eight wells) and then allowed to dry. Trays were covered with a clear self-adhesive cover, and held at 25° C., 14:10 light-dark for five to seven days. Percent mortality was recorded for the larvae in each well; activity in the eight wells was then averaged. The results are indicated in the table entitled “Table 3: Assay Results” (See Table Section).
With O=C(CNC(=O)c1ccc(/C=C\C(c2cc(Cl)c(Cl)c(Cl)c2)C(F)(F)F)cc1Br)NCC(F)(F)F (stereo not drawn) [AC95, (Z)-2-Bromo-N-(2-oxo-2-((2,2,2-trifluoroethyl)amino)ethyl)-4-(4,4,4-trifluoro-3-(3,4,5-trichlorophenyl)but-1-en-1-yl)benzamide] the “BAW Rating” value was “A (50-100)”. In the case of Fc1cc(F)cc(C(/C=C/c2ccc(-n3cncn3)cc2)C(F)(F)F)c1 (stereo not drawn) [DC8], the “BAW Rating” value is reported as “A (50-100)”. For Fc1c(Cl)cc(C(/C=C/c2ccc3c(c2)CCC3NCCC(F)(F)F)C(F)(F)F)cc1Cl (stereo not drawn) [BC10, (E)-5-(3-(3,5-Dichloro-4-fluorophenyl)-4,4,4-trifluorobut-1-en-1-yl)-N-(3,3,3-trifluoropropyl)-2,3-dihydro-1H-inden-1-amine], the “BAW Rating” value was “A (50-100)”. CN(C)C(=O)NCc1ccc(/C=C/C(c2cc(Cl)c(Cl)c(Cl)c2)C(F)(F)F)cc1Cl (stereo not drawn) [CC36, (E)-3-(2-Chloro-4-(4,4,4-trifluoro-3-(3,4,5-trichlorophenyl)but-1-en-1-yl)benzyl)-1,1-dimethylurea] was tested, and the “BAW Rating” value was “A (50-100)”. O=C(NC1CS(=O)(=O)C1)c1ccc(/C=C/C(c2cc(Cl)c(Cl)c(Cl)c2)C(F)(F)F)cc1Cl (stereo not drawn) [AC30] was tested, and the “BAW Rating” value was “A (50-100)”. Cc1cc(/C=C/C(c2cc(Cl)c(F)c(Cl)c2)C(F)(F)F)ccc1C(=O)NCC(=O)NCC(F)(F)F (stereo not drawn) [AC69] was tested, and the “BAW Rating” value was “A (50-100)”. With O=C(CNC(=O)c1ccc(/C=C/C(c2cc(Cl)c(F)c(Cl)c2)C(F)(F)F)cc1F)NCC(F)(F)F (stereo not drawn) [AC68] the “BAW Rating” value was “A (50-100)”. In the case of O=C(NC1CS(=O)(=O)C1)c1ccc(/C=C/C(c2cc(Cl)cc(Cl)c2)C(F)(F)F)cc1F (stereo not drawn) [AC83, (E)-4-(3-(3,5-Dichlorophenyl)-4,4,4-trifluorobut-1-en-1-yl)-N-(1,1-dioxidothietan-3-yl)-2-fluorobenzamide], the “BAW Rating” value is reported as “A (50-100)”. With FC(F)(F)C(/C=C/c1ccc(-n2cncn2)c(Br)c1)c1cc(Cl)cc(Cl)c1 (stereo not drawn) [DC47] the “BAW Rating” value was “A (50-100)”. For CCNC(=S)NCc1ccc(/C=C/C(c2cc(Cl)c(Cl)c(Cl)c2)C(F)(F)F)cc1Cl (stereo not drawn) [CC37, (E)-1-(2-Chloro-4-(4,4,4-trifluoro-3-(3,4,5-trichlorophenyl)but-1-en-1-yl)benzyl)-3-ethylthiourea], the “BAW Rating” value was “A (50-100)”. Cc1cc(/C=C/C(c2cc(Cl)cc(Cl)c2)C(F)(F)F)ccc1C(=O)NCc1nnc(C2CC2)o1 (stereo not drawn) [AC89, (E)-N-((5-Cyclopropyl-1,3,4-oxadiazol-2-yl)methyl)-4-(3-(3,5-dichlorophenyl)-4,4,4-trifluorobut-1-en-1-yl)-2-methylbenzamide] was tested, and the “BAW Rating” value was “A (50-100)”. With CC(=O)NCc1ccc(/C=C/C(c2cc(Cl)cc(Cl)c2)C(F)(F)F)cc1Cl (stereo not drawn) [CC7, (E)-N-(2-Chloro-4-(3-(3,5-dichlorophenyl)-4,4,4-trifluorobut-1-en-1-yl)benzyl)acetamide] the “BAW Rating” value was “A (50-100)”. O=C(CC(F)(F)F)NCc1ccc(/C=C/C(c2ccc(Cl)c(Cl)c2)C(F)(F)F)cc1Cl (stereo not drawn) [CC18] was tested, and the “BAW Rating” value was “A (50-100)”. In the case of O=C(NCc1ccc(Cl)nc1)c1ccc(/C=C/C(c2cc(Cl)cc(Cl)c2)C(F)(F)F)cc1F (stereo not drawn) [AC49], the “BAW Rating” value is reported as “A (50-100)”. With O=C(NOc1ccc(/C=C/C(c2cc(Cl)c(Cl)c(Cl)c2)C(F)(F)F)cc1)C1CC1 (stereo not drawn) [CC52, (E)-N-(4-(4,4,4-Trifluoro-3-(3,4,5-trichlorophenyl)but-1-en-1-yl)phenoxy)cyclopropanecarboxamide] the “BAW Rating” value was “A (50-100)”. In the case of O=C(CNC(=O)c1ccc(/C=C/C(c2cc(Cl)c(F)c(Cl)c2)C(F)(F)F)cc1Br)NCC(F)(F)F (stereo not drawn) [AC79, (E)-2-Bromo-4-(3-(3,5-dichloro-4-fluorophenyl)-4,4,4-trifluorobut-1-en-1-yl)-N-(2-oxo-2-((2,2,2-trifluoroethyl)amino)ethyl)benzamide], the “BAW Rating” value is reported as “A (50-100)”. In the case of O=C(CC(F)(F)F)NCc1ncc(/C=C/C(c2cc(Cl)c(Cl)c(Cl)c2)C(F)(F)F)cc1Cl (stereo not drawn) [CC44, (E)-N-((3-Chloro-5-(4,4,4-trifluoro-3-(3,4,5-trichlorophenyl)-but-1-en-1-yl)pyridin-2-yl)methyl)-3,3,3-trifluoropropanamide], the “BAW Rating” value is reported as “A (50-100)”. With CCNC(=O)NCc1ccc(/C=C/C(c2cc(Cl)c(Cl)c(Cl)c2)C(F)(F)F)cc1Br (stereo not drawn) [CC33] the “BAW Rating” value was “A (50-100)”. N#Cc1cc(/C=C/C(c2cc(Cl)c(F)c(Cl)c2)C(F)(F)F)ccc1-n1cncn1 (stereo not drawn) [DC35] was tested, and the “BAW Rating” value was “A (50-100)”. With Cc1cc(/C=C/C(c2cc(Cl)cc(Cl)c2)C(F)(F)F)ccc1C(=O)NN(C)c1ccccc1F (stereo not drawn) [AC45] the “BAW Rating” value was “A (50-100)”. For Cc1cc(/C=C/C(c2cc(Cl)c(F)c(Cl)c2)C(F)(F)F)ccc1C(=O)NCc1ccc(Cl)cn1 (stereo not drawn) [AC53], the “BAW Rating” value was “A (50-100)”. With FC(F)(F)C(/C=C/c1ccc(-n2cncn2)cc1)c1ccc(Cl)c(Cl)c1 (stereo not drawn) [DC12] the “BAW Rating” value was “A (50-100)”. For O=C(C1CC1)N(Cc1ccccn1)Cc1ccc(/C=C/C(c2cc(Cl)c(Cl)c(Cl)c2)C(F)(F)F)cc1C(F)(F)F (stereo not drawn) [CC29, (E)-N-(Pyridin-2-ylmethyl)-N-(4-(4,4,4-trifluoro-3-(3,4,5-trichlorophenyl)but-1-enyl)-2-(trifluoromethyl)benzyl)cyclopropanecarboxamide], the “BAW Rating” value was “A (50-100)”. In the case of O=C(NCc1ccc(/C=C/C(c2cc(Cl)c(Cl)c(Cl)c2)C(F)(F)F)cc1C(F)(F)F)C1CC1 (stereo not drawn) [CC22], the “BAW Rating” value is reported as “A (50-100)”. In the case of CS(=O)(=O)CCC(=O)NCc1ccc(/C=C/C(c2cc(Cl)c(Cl)c(Cl)c2)C(F)(F)F)cc1Cl (stereo not drawn) [CC30, (E)-N-(2-Chloro-4-(4,4,4-trifluoro-3-(3,4,5-trichlorophenyl)but-1-en-1-yl)benzyl)-3-(methylsulfonyl)propanamide], the “BAW Rating” value is reported as “A (50-100)”. For FC(F)(F)C(/C=C/c1ccc(-n2cncn2)cc1Cl)c1cc(Cl)cc(Cl)c1 (stereo not drawn) [DC67], the “BAW Rating” value was “A (50-100)”. With O=C(Cc1ccc(Cl)nc1)NCc1ccc(/C=C/C(c2cc(Cl)c(Cl)c(Cl)c2)C(F)(F)F)cc1Cl (stereo not drawn) [CC14] the “BAW Rating” value was “A (50-100)”. In the case of CCOC(=O)c1cc(/C=C/C(c2cc(Cl)cc(Cl)c2)C(F)(F)F)ccc1-n1cncn1 (stereo not drawn) [DC60], the “BAW Rating” value is reported as “A (50-100)”. With Cc1cc(/C=C/C(c2cc(Cl)cc(Cl)c2)C(F)(F)F)ccc1C(=O)NCc1cnc(Cl)s1 (stereo not drawn) [AC15] the “BAW Rating” value was “A (50-100)”. In the case of Cc1cc(/C=C/C(c2cc(Cl)c(Cl)c(Cl)c2)C(F)(F)F)ccc1C(=O)NCc1cnc(Cl)s1 (stereo not drawn) [AC26], the “BAW Rating” value is reported as “A (50-100)”. FC(F)(F)CNC(=S)CNC(=S)c1ccc(/C=C/C(c2cc(Cl)c(Cl)c(Cl)c2)C(F)(F)F)cc1Br (stereo not drawn) [AC90, (E)-2-Bromo-N-(2-thioxo-2-((2,2,2-trifluoroethyl)amino)ethyl)-4-(4,4,4-trifluoro-3-(3,4,5-trichlorophenyl)but-1-en-1-yl)benzothioamide] was tested, and the “BAW Rating” value was “A (50-100)”. With COc1cc(/C=C/C(c2cc(Cl)c(F)c(Cl)c2)C(F)(F)F)ccc1C(=O)NC1CSC1 (stereo not drawn) [AC71] the “BAW Rating” value was “A (50-100)”. In the case of N#Cc1cc(/C=C/C(c2cc(Cl)c(Cl)c(Cl)c2)C(F)(F)F)ccc1-n1cnc([N+](=O)[O-])n1 (stereo not drawn) [DC40, (E)-2-(3-Nitro-1H-1,2,4-triazol-1-yl)-5-(4,4,4-trifluoro-3-(3,4,5-trichlorophenyl)but-1-en-1-yl)benzonitrile], the “BAW Rating” value is reported as “A (50-100)”. For FC(F)(F)C(/C=C/c1ccc(-n2cncn2)c(Cl)c1)c1cc(Cl)c(Cl)c(Cl)c1 (stereo not drawn) [DC49], the “BAW Rating” value was “A (50-100)”. In the case of O=C(NCc1ccc(/C=C/C(c2cc(Cl)c(Cl)c(Cl)c2)C(F)(F)F)cc1Cl)C1CC1 (stereo not drawn) [CC11], the “BAW Rating” value is reported as “A (50-100)”. In the case of Cc1cc(/C=C/C(c2cc(Cl)cc(Cl)c2)C(F)(F)F)ccc1C(=O)Nc1ccc(Cl)nc1 (stereo not drawn) [AC59], the “BAW Rating” value is reported as “A (50-100)”. With Cc1cc(/C=C/C(c2cc(Cl)cc(Cl)c2)C(F)(F)F)ccc1C(=O)NC1CSC1 (stereo not drawn) [AC10] the “BAW Rating” value was “A (50-100)”. FC(F)(F)C(/C=C/c1ccc(-n2cncn2)cc1)c1ccccc1 (stereo not drawn) [DC3] was tested, and the “BAW Rating” value was “B (More than 0-Less than 50)”. In the case of O=C(NCc1ccc(/C=C/C(c2cc(Cl)c(F)c(Cl)c2)C(F)(F)F)cc1Cl)C1CC1 (stereo not drawn) [CC15], the “BAW Rating” value is reported as “A (50-100)”. With O=C(NCc1ccc(Cl)nc1)c1ccc(/C=C/C(c2cc(Cl)c(Cl)c(Cl)c2)C(F)(F)F)cc1C(F)(F)F (stereo not drawn) [AC36] the “BAW Rating” value was “A (50-100)”. In the case of Cc1cc(/C=C/C(c2cc(Cl)cc(Cl)c2)C(F)(F)F)ccc1C(=O)NCc1ccccc1 (stereo not drawn) [AC11], the “BAW Rating” value is reported as “A (50-100)”. For C=CCNC(=S)NCc1ccc(/C=C/C(c2cc(Cl)c(Cl)c(Cl)c2)C(F)(F)F)cc1Cl (stereo not drawn) [CC38], the “BAW Rating” value was “A (50-100)”. In the case of O=C(NC1CSC1)c1ccc(/C=C/C(c2cc(Cl)cc(Cl)c2)C(F)(F)F)cc1F (stereo not drawn) [AC61], the “BAW Rating” value is reported as “A (50-100)”. In the case of O=C(NC1CCN(C(=O)CC(F)(F)F)CC1)c1ccc(/C=C/C(c2cc(Cl)c(Cl)c(Cl)c2)C(F)(F)F)cc1Br (stereo not drawn) [AC104, (E)-2-Bromo-4-(4,4,4-trifluoro-3-(3,4,5-trichlorophenyl)but-1-en-1-yl)-N-(1-(3,3,3-trifluoropropanoyl)piperidin-4-yl)benzamide], the “BAW Rating” value is reported as “A (50-100)”. With O=C(CNC(=O)c1ccc(/C=C/C(c2cc(Cl)c(F)c(Cl)c2)C(F)(F)F)cc1[N+](=O)[O-])NCC(F)(F)F (stereo not drawn) [AC98] the “BAW Rating” value was “A (50-100)”. For O=C(NCc1ccc(/C=C/C(c2cc(Cl)cc(Cl)c2)C(F)(F)F)cc1Cl)C1CC1 (stereo not drawn) [CC8], the “BAW Rating” value was “A (50-100)”. In the case of O=C(CC(F)(F)F)NC1CCCc2cc(/C=C/C(c3cc(Cl)c(Cl)c(Cl)c3)C(F)(F)F)ccc21 (stereo not drawn) [BC5], the “BAW Rating” value is reported as “A (50-100)”. With O=C(CC(F)(F)F)NCC(=O)n1ccc2cc(/C=C/C(c3cc(Cl)c(F)c(Cl)c3)C(F)(F)F)ccc21 (stereo not drawn) [BC13, (E)-N-(2-(5-(3-(3,5-Dichloro-4-fluorophenyl)-4,4,4-trifluorobut-1-en-1-yl)-1H-indol-1-yl)-2-oxoethyl)-3,3,3-trifluoropropanamide] the “BAW Rating” value was “A (50-100)”.
